Test results taken from patent US10800791B2, “Triazole ACC inhibitors and uses thereof” (Gilead Apollo, LLC, priority 2015, dated 2020).
Converted amounts (≈) assume the structure as drawn. Where two headings read alike, the source gives them in different places.

Columns and labels:
C. albicans = assay: Antifungal Activity Assay (broth microtiter MIC), C. albicans; type: cell-based, Candida albicans; settings: Candida albicans, ATCC90028, 48 h, ATCC 90028, 3 replicates, MIC recorded at 48 h, read-out: MIC, C. albicans ATCC 90028
Outline: (§1)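 Susceptibility was determined by CLSI M27-A3 broth microdilution in RPMI 1640 buffered with MOPS. Growth inhibition was scored visually after 48 h.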

C. krusei = assay: Antifungal Activity Assay (broth microtiter MIC), C. krusei; type: cell-based, Candida krusei; settings: Pichia kudriavzevii, ATCC6258, 48 h, ATCC 6258, 3 replicates, MIC recorded at 48 h, read-out: MIC, C. krusei ATCC 6258
Outline: as §1

C. parapsilosis = assay: Antifungal Activity Assay (broth microtiter MIC), C. parapsilosis; type: cell-based, Candida parapsilosis; settings: Lodderomyces parapsilosis, ATCC22019, 48 h, ATCC 22019, 3 replicates, MIC recorded at 48 h, read-out: MIC, C. parapsilosis ATCC 22019
Outline: as §1

Botrtyis cinerea (Bc) = assay: Growth inhibition assay of fungal pathogens, Bc; type: cell-based; settings: 48 h, Botrtyis cinerea, read-out: Concentration at 90% Inhibition Bc
Outline: (§2)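 Read-out: OD600 plus visual rating at 24 and 48 h, blank (media + 2% DMSO) subtracted. Percent inhibition was derived at 48 h versus the 2% DMSO control. Spores were grown in 17% V8 broth with compound at 50/10/2 or 2/0.4/0.08 ppm final.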

[1] = test system: Collectotrichum graminicola (Cg); assay: Growth inhibition assay of fungal pathogens, Cg; type: cell-based; settings: 48 h, Collectotrichum graminicola, read-out: Concentration at 90% Inhibition Cg
Outline: as §2

Diplodia maydis (Dm) = assay: Growth inhibition assay of fungal pathogens, Dm; type: cell-based; settings: Stenocarpella maydis, 48 h, Diplodia maydis, read-out: Concentration at 90% Inhibition Dm
Outline: as §2

[2] = test system: Fusarium moniliforme (Fm); assay: Growth inhibition assay of fungal pathogens, Fm; type: cell-based; settings: Fusarium verticillioides, 48 h, Fusarium moniliforme, read-out: Concentration at 90% Inhibition Fm
Outline: as §2

[3] = test system: Fusarium virguliforme (Fv); assay: Growth inhibition assay of fungal pathogens, Fv; type: cell-based; settings: 48 h, read-out: Concentration at 90% Inhibition Fv
Outline: as §2

[4] = test system: Phytophthora capsici (Pc); assay: Growth inhibition assay of fungal pathogens, Pc; type: cell-based; settings: 48 h, read-out: Concentration at 90% Inhibition Pc
Outline: as §2

Septoria tritici (St) = assay: Growth inhibition assay of fungal pathogens, St; type: cell-based; settings: Zymoseptoria tritici, 48 h, Septoria tritici, read-out: Concentration at 90% Inhibition St
Outline: as §2

fungal (fACC2) = fungal (fACC2) (UniProt Q00955); settings: read-out: fACC2 (in vitro ACC2 Inhibition Assay, IC50), ADP-Glo, 5 nM ACC2, 20 μM ATP, 20 μM acetyl-CoA
[5] = growth inhibition at 48 hours vs 2% DMSO control
[6] = growth inhibition vs 2% DMSO control at 48 hours

fungal (fACC2), sequence (Q00955 whole entry): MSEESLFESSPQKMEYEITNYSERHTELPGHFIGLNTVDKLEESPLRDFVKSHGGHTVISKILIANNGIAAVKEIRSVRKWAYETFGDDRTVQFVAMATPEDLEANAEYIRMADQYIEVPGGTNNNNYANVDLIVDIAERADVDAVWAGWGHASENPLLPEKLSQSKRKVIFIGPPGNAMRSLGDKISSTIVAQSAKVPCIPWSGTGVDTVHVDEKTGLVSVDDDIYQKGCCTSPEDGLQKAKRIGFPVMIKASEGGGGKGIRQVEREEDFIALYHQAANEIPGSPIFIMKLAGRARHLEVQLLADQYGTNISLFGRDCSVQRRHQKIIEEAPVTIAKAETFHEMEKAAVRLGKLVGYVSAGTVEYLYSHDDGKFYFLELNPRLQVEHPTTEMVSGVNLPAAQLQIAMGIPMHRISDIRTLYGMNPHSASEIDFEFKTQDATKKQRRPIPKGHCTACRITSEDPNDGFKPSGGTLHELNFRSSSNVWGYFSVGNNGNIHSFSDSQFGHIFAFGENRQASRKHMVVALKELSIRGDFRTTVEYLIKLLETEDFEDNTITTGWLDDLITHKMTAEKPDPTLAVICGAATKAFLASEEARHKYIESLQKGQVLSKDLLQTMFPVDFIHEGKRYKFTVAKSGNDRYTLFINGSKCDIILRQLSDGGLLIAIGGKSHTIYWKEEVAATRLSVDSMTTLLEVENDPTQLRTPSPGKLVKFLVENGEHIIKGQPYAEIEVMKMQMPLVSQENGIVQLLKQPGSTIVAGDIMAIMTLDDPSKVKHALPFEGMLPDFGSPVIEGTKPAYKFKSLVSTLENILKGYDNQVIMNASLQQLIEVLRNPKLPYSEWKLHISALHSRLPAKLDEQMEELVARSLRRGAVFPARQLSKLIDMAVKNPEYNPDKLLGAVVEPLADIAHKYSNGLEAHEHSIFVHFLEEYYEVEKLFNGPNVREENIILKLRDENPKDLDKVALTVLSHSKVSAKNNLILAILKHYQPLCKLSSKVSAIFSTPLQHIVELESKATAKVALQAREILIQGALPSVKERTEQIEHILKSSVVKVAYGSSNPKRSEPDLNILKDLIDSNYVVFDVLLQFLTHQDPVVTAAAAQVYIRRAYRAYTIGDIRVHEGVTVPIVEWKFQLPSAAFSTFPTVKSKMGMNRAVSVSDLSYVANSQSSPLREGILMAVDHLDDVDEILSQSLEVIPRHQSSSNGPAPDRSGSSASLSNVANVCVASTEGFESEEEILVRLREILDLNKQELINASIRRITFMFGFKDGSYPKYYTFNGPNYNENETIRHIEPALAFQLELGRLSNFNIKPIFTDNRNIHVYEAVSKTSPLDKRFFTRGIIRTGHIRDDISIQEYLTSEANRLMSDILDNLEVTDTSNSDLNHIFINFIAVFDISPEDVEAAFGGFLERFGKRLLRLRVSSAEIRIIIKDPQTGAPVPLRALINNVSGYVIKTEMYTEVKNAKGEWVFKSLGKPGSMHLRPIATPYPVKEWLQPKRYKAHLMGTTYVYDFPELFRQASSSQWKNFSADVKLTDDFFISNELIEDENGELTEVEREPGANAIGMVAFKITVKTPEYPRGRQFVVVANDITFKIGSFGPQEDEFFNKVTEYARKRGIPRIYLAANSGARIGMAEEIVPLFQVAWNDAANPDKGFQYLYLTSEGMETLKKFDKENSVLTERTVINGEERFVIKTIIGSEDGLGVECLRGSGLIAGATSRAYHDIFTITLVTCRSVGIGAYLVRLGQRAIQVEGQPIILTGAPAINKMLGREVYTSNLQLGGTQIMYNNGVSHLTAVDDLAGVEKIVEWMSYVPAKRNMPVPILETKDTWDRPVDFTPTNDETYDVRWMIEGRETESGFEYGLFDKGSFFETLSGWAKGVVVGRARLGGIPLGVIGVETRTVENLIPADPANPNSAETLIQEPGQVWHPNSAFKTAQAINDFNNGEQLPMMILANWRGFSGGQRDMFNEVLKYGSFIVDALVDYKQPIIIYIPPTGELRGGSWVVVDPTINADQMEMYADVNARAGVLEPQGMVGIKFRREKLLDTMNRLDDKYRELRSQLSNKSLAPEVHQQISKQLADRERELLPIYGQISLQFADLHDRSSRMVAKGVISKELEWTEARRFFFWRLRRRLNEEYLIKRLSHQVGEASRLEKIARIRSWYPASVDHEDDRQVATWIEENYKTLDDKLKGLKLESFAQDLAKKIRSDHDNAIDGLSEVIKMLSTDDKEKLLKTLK

| Structure (SMILES) | MIC (C. albicans; Table 3a) | MIC (C. albicans; Table 3b (additional results)) | MIC (C. krusei; Table 3a) | MIC (C. krusei; Table 3b (additional results)) | MIC (C. parapsilosis; Table 3a) | MIC (C. parapsilosis; Table 3b (additional results)) | IC90 (Botrtyis cinerea (Bc); [5]) | IC90 (Botrtyis cinerea (Bc); [6]) | IC90 [1, 5] | IC90 [1, 6] | IC90 (Diplodia maydis (Dm); [5]) | IC90 (Diplodia maydis (Dm); [6]) | IC90 [2, 5] | IC90 [2, 6] | IC90 [3, 5] | IC90 [3, 6] | IC90 [4, 5] | IC90 [4, 6] | IC90 (Septoria tritici (St); [5]) | IC90 (Septoria tritici (St); [6]) | other results |
| --- | --- | --- | --- | --- | --- | --- | --- | --- | --- | --- | --- | --- | --- | --- | --- | --- | --- | --- | --- | --- | --- |
| COc1ccc(F)cc1[C@H](Cn1c(=O)n(C(C)(C)C(N)=O)c(=O)c2c(C)c(-n3nccn3)sc21)OC1CCOCC1 [Compound I-1] | 0.25 to 1 µg/mL (≈ 0.426 to 1.7 µM) | 0.25 to 1 µg/mL (≈ 0.426 to 1.7 µM) | 0.25 to 1 µg/mL (≈ 0.426 to 1.7 µM) | 0.25 to 1 µg/mL (≈ 0.426 to 1.7 µM) | 1.1 to 2 µg/mL (≈ 1.88 to 3.41 µM) | 2.01 to 4 µg/mL (≈ 3.43 to 6.82 µM) | 2 µg/mL (≈ 3.41 µM) | 2 µg/mL (≈ 3.41 µM) | 2 µg/mL (≈ 3.41 µM) | 2 µg/mL (≈ 3.41 µM) | 2 µg/mL (≈ 3.41 µM) | 2 µg/mL (≈ 3.41 µM) | 0.4 µg/mL (≈ 0.682 µM) | 0.4 µg/mL (≈ 0.682 µM) | 2 µg/mL (≈ 3.41 µM) | 2 µg/mL (≈ 3.41 µM) | 10 µg/mL (≈ 17 µM) | > 50 µg/mL | > 50 µg/mL | > 50 µg/mL | IC50 (fungal (fACC2); Table 2a): 1 to 5 nM; IC50 (fungal (fACC2); Table 2b, additional results): 1 to 5 nM |
| COc1ccc(F)cc1[C@H](Cn1c(=O)n(C(C)(C)C(=O)N2CC(O)C2)c(=O)c2c(C)c(-n3nccn3)sc21)OC1CCOCC1 [Compound I-26, (R)-1-(2-(5-fluoro-2-methoxyphenyl)-2-((tetrahydro-2H-pyran-4-yl)oxy)ethyl)-3-(1-(3-hydroxyazetidin-1-yl)-2-methyl-1-oxopropan-2-yl)-5-methyl-6-(2H-1,2,3-triazol-2-yl)thieno[2,3-d]pyrimidine-2,4(1H,3H)-dione] | 2.1 to 4 µg/mL (≈ 3.27 to 6.22 µM) | 1.01 to 2 µg/mL (≈ 1.57 to 3.11 µM) | 2.1 to 4 µg/mL (≈ 3.27 to 6.22 µM) | 1.01 to 2 µg/mL (≈ 1.57 to 3.11 µM) | 2.1 to 4 µg/mL (≈ 3.27 to 6.22 µM) | 1.01 to 2 µg/mL (≈ 1.57 to 3.11 µM) | 2 µg/mL (≈ 3.11 µM) | 2 µg/mL (≈ 3.11 µM) | 10 µg/mL (≈ 15.6 µM) | > 50 µg/mL | 10 µg/mL (≈ 15.6 µM) | > 50 µg/mL | 0.4 µg/mL (≈ 0.622 µM) | 0.4 µg/mL (≈ 0.622 µM) | 2 µg/mL (≈ 3.11 µM) | 2 µg/mL (≈ 3.11 µM) | > 50 µg/mL | > 50 µg/mL | > 50 µg/mL | > 50 µg/mL |  |
